Measured values reported in ChEMBL document CHEMBL1138820, “Synthesis and QSAR studies of pyrimido[4,5-d]pyrimidine-2,5-dione derivatives as potential antimicrobial agents” (2004).
Converted amounts (≈) assume the structure as drawn.

Experiments:
Format in all cases: functional
[1] = Minimum inhibitory concentration required for antibacterial activity against Pseudomonas diminuta MTCC 3361; gram negative; conditions: Brevundimonas diminuta
Staphylococcus aureus = assay: Minimum inhibitory concentration required for antibacterial activity against Staphylococcus aureus ATCC 2943; gram positive
Candida albicans = assay: Minimum inhibitory concentration required for antifungal activity against Candida albicans ATCC 10321
Escherichia coli = assay: Minimum inhibitory concentration required for antibacterial activity against Escherichia coli ATCC 13607; gram negative
Bacillus subtilis = assay: Minimum inhibitory concentration required for antibacterial activity against Bacillus subtilis ATCC 6633; gram positive
Aspergillus niger = assay: Minimum inhibitory concentration required for antifungal activity against Aspergillus niger ATCC 16404

SMILES | MIC [1] [µg/mL] | MIC (Staphylococcus aureus) [µg/mL] | MIC (Candida albicans) [µg/mL] | MIC (Escherichia coli) [µg/mL] | MIC (Bacillus subtilis) [µg/mL] | MIC (Aspergillus niger) [µg/mL]
O=C1Nc2[nH]c(=S)n(-c3cccc(Cl)c3)c(=O)c2C(c2ccccc2Cl)N1/N=N/c1ccc(Cl)cc1 (configuration not stated) | 5 (≈ 8.96 µM) | 2 (≈ 3.59 µM) | 11 (≈ 19.7 µM) | 4 (≈ 7.17 µM) | 4 (≈ 7.17 µM) | 14 (≈ 25.1 µM)
O=C1Nc2[nH]c(=S)n(-c3cccc([N+](=O)[O-])c3)c(=O)c2C(c2ccccc2Cl)N1/N=N/c1ccc(Cl)cc1 (configuration not stated) | 8 (≈ 14.1 µM) | 3 (≈ 5.28 µM) | 13 (≈ 22.9 µM) | 6 (≈ 10.6 µM) | 5 (≈ 8.8 µM) | 16 (≈ 28.1 µM)
CC1(C)S[C@@H]2[C@H](NC(=O)[C@H](N)c3ccccc3)C(=O)N2[C@H]1C(=O)O [AMPICILLIN] | 15 (≈ 42.9 µM) | 50 (≈ 143 µM) | – | 49 (≈ 140 µM) | 10 (≈ 28.6 µM) | –
Clc1ccccc1C(c1ccccc1)(c1ccccc1)n1ccnc1 [CLOTRIMAZOLE] | – | – | 25 (≈ 72.5 µM) | – | – | 20 (≈ 58 µM)
O=C1Nc2[nH]c(=S)n(-c3cccc(O)c3)c(=O)c2C(c2ccccc2Cl)N1/N=N/c1ccc(Cl)cc1 (configuration not stated) | 13 (≈ 24.1 µM) | 6 (≈ 11.1 µM) | 20 (≈ 37.1 µM) | 10 (≈ 18.5 µM) | 8 (≈ 14.8 µM) | 24 (≈ 44.5 µM)
O=C1Nc2[nH]c(=S)n(-c3ccccc3)c(=O)c2C(c2ccccc2Cl)N1/N=N/c1ccc(Cl)cc1 (configuration not stated) | 46 (≈ 87.9 µM) | 32 (≈ 61.1 µM) | 52 (≈ 99.3 µM) | 40 (≈ 76.4 µM) | 37 (≈ 70.7 µM) | 57 (≈ 109 µM)

Next, values leading:

MIC [1] [µg/mL] | MIC (Staphylococcus aureus) [µg/mL] | MIC (Candida albicans) [µg/mL] | MIC (Escherichia coli) [µg/mL] | MIC (Bacillus subtilis) [µg/mL] | MIC (Aspergillus niger) [µg/mL] | SMILES
25 (≈ 46.5 µM) | 18 (≈ 33.5 µM) | 35 (≈ 65.1 µM) | 22 (≈ 40.9 µM) | 21 (≈ 39.1 µM) | 39 (≈ 72.6 µM) | Cc1cccc(-n2c(=S)[nH]c3c(c2=O)C(c2ccccc2Cl)N(/N=N/c2ccc(Cl)cc2)C(=O)N3)c1 (configuration not stated)
11 (≈ 19.4 µM) | 5 (≈ 8.81 µM) | 17 (≈ 30 µM) | 8 (≈ 14.1 µM) | 7 (≈ 12.3 µM) | 22 (≈ 38.8 µM) | O=C(O)c1ccc(-n2c(=S)[nH]c3c(c2=O)C(c2ccccc2Cl)N(/N=N/c2ccc(Cl)cc2)C(=O)N3)cc1 (configuration not stated)
9 (≈ 15.8 µM) | 4 (≈ 7.04 µM) | 15 (≈ 26.4 µM) | 7 (≈ 12.3 µM) | 6 (≈ 10.6 µM) | 19 (≈ 33.4 µM) | O=C1Nc2[nH]c(=S)n(-c3ccc([N+](=O)[O-])cc3)c(=O)c2C(c2ccccc2Cl)N1/N=N/c1ccc(Cl)cc1 (configuration not stated)
21 (≈ 37.9 µM) | 11 (≈ 19.9 µM) | 29 (≈ 52.4 µM) | 17 (≈ 30.7 µM) | 16 (≈ 28.9 µM) | 33 (≈ 59.6 µM) | COc1ccc(-n2c(=S)[nH]c3c(c2=O)C(c2ccccc2Cl)N(/N=N/c2ccc(Cl)cc2)C(=O)N3)cc1 (configuration not stated)
14 (≈ 25.1 µM) | 9 (≈ 16.1 µM) | 24 (≈ 43 µM) | 13 (≈ 23.3 µM) | 12 (≈ 21.5 µM) | 29 (≈ 52 µM) | O=C1Nc2[nH]c(=S)n(-c3ccc(Cl)cc3)c(=O)c2C(c2ccccc2Cl)N1/N=N/c1ccc(Cl)cc1 (configuration not stated)
15 (≈ 27.8 µM) | 8 (≈ 14.8 µM) | 23 (≈ 42.6 µM) | 12 (≈ 22.2 µM) | 10 (≈ 18.5 µM) | 27 (≈ 50.1 µM) | O=C1Nc2[nH]c(=S)n(-c3ccc(O)cc3)c(=O)c2C(c2ccccc2Cl)N1/N=N/c1ccc(Cl)cc1 (configuration not stated)
31 (≈ 57.7 µM) | 21 (≈ 39.1 µM) | 39 (≈ 72.6 µM) | 26 (≈ 48.4 µM) | 22 (≈ 40.9 µM) | 42 (≈ 78.1 µM) | Cc1ccc(-n2c(=S)[nH]c3c(c2=O)C(c2ccccc2Cl)N(/N=N/c2ccc(Cl)cc2)C(=O)N3)cc1 (configuration not stated)
